# Values joined by “and” are separate entries in the source; they are usually repeats but may differ in a detail not shown here. Equal values may be shown once. Toxic doses and inconclusive results are not listed.
# Tested on: L1210 leukemia ip in BDF1 mice, survival T/C
# Assay: NCI In Vivo Anticancer Drug Screen. Data for tumor model L1210 Leukemia (intraperitoneal) in B6D2F1 (BDF1) mice
# Details: endpoint: mean survival time, higher = longer survival
# Method in brief: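 Ratio derived from survival: compound-dosed mice over vehicle-dosed mice, all bearing a transplantable tumor.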
# [1] = dose: 50.0 mg/kg/injection, schedule: Q01DX009 (ip), vehicle: saline with Tween-80
# [2] = dose: 100.0 mg/kg/injection, schedule: Q01DX009 (ip), vehicle: saline with Tween-80
# [3] = dose: 100.0 mg/kg/injection, schedule: Q04DX003 (ip), vehicle: saline with Tween-80
# [4] = dose: 200.0 mg/kg/injection, schedule: Q01DX009 (ip), vehicle: saline with Tween-80
# [5] = dose: 200.0 mg/kg/injection, schedule: Q04DX003 (ip), vehicle: saline with Tween-80
# [6] = dose: 400.0 mg/kg/injection, schedule: Q04DX003 (ip), vehicle: saline with Tween-80
# [7] = dose: 100.0 mg/kg/injection, schedule: Q01DX009 (ip), vehicle: Klucel (hydroxypropylcellulose) (HPC)
# [8] = dose: 100.0 mg/kg/injection, schedule: Q04DX003 (ip), vehicle: Klucel (hydroxypropylcellulose) (HPC)
# [9] = dose: 200.0 mg/kg/injection, schedule: Q01DX009 (ip), vehicle: Klucel (hydroxypropylcellulose) (HPC)
# [10] = dose: 200.0 mg/kg/injection, schedule: Q04DX003 (ip), vehicle: Klucel (hydroxypropylcellulose) (HPC)
# [11] = dose: 400.0 mg/kg/injection, schedule: Q01DX009 (ip), vehicle: Klucel (hydroxypropylcellulose) (HPC)
# [12] = dose: 400.0 mg/kg/injection, schedule: Q04DX003 (ip), vehicle: Klucel (hydroxypropylcellulose) (HPC)
compound,measurement,setting,value
CCN(CC)CC(=O)Nc1cccc2c1C(=O)c1c(c(O)c3ccccc3c1O)C2=O,T/C,[1],94 % of control
same,T/C,[2],103 % of control
same,T/C,[3],101 % of control
same,T/C,[4],98 % of control
same,T/C,[5],155 % of control
same,T/C,[6],102 % of control
ON=C1CSSC1,T/C,"dose: 1.0 mg/kg/injection, schedule: Q01DX009 (ip), vehicle: saline with Tween-80",97 % of control
same,T/C,"dose: 1.56 mg/kg/injection, schedule: Q04DX003 (ip), vehicle: saline with Tween-80",97 % of control
same,T/C,"dose: 2.0 mg/kg/injection, schedule: Q01DX009 (ip), vehicle: saline with Tween-80",97 % of control
same,T/C,"dose: 3.12 mg/kg/injection, schedule: Q04DX003 (ip), vehicle: saline with Tween-80",106 % of control
same,T/C,"dose: 4.0 mg/kg/injection, schedule: Q01DX009 (ip), vehicle: saline with Tween-80",101 % of control
same,T/C,"dose: 6.25 mg/kg/injection, schedule: Q04DX003 (ip), vehicle: saline with Tween-80",101 % of control
same,T/C,"dose: 8.0 mg/kg/injection, schedule: Q01DX009 (ip), vehicle: saline with Tween-80",104 % of control
same,T/C,"dose: 12.5 mg/kg/injection, schedule: Q04DX003 (ip), vehicle: saline with Tween-80",89 % of control and 90 % of control
CC12CCC(CC1Cl)C2 (stereo not drawn),T/C,"dose: 50.0 mg/kg/injection, schedule: Q01DX001 (ip), vehicle: carboxymethylcellulose (CMC)",93 % of control
same,T/C,"dose: 100.0 mg/kg/injection, schedule: Q01DX001 (ip), vehicle: carboxymethylcellulose (CMC)",91 % of control
same,T/C,"dose: 200.0 mg/kg/injection, schedule: Q01DX001 (ip), vehicle: carboxymethylcellulose (CMC)",91 % of control
same,T/C,"dose: 400.0 mg/kg/injection, schedule: Q01DX001 (ip), vehicle: carboxymethylcellulose (CMC)",96 % of control
OC1(C2(O)c3ccccc3Oc3ccccc32)c2ccccc2Oc2ccccc21,T/C,"dose: 100.0 mg/kg/injection, schedule: Q04DX003 (ip), vehicle: saline",95 % of control
same,T/C,"dose: 200.0 mg/kg/injection, schedule: Q04DX003 (ip), vehicle: saline",95 % of control
same,T/C,"dose: 400.0 mg/kg/injection, schedule: Q04DX003 (ip), vehicle: saline",97 % of control
O=C1c2ccccc2C(=O)c2c(Nc3ccc(CCO)cc3)ccc(O)c21,T/C,[7],103 % of control
same,T/C,[8],102 % of control
same,T/C,[9],97 % of control
same,T/C,[10],100 % of control
same,T/C,[11],101 % of control
same,T/C,[12],102 % of control
COc1cc2ccnc(C(OC(=O)c3ccccc3)c3ccc(OCc4ccccc4)cc3)c2cc1OC (stereo not drawn),T/C,[3],95 % of control
same,T/C,[5],88 % of control
same,T/C,[6],95 % of control
CC(=O)c1ccc(C(=O)O)cc1,T/C,[1],87 % of control
same,T/C,[2],115 % of control
same,T/C,[4],94 % of control
O=COCC1CCC(COC=O)CC1 (stereo not drawn),T/C,"dose: 222.0 mg/kg/injection, schedule: Q01DX Z (ip), vehicle: methylcellulose (MC)",94 % of control
same,T/C,"dose: 333.0 mg/kg/injection, schedule: Q01DX Z (ip), vehicle: methylcellulose (MC)",94 % of control
same,T/C,"dose: 500.0 mg/kg/injection, schedule: Q01DX Z (ip), vehicle: methylcellulose (MC)",105 % of control
Cc1cc([N+](=O)[O-])c(NCCOC(=O)c2ccccc2Cl)c([N+](=O)[O-])c1,T/C,[7],102 % of control
same,T/C,[9],103 % of control
same,T/C,[11],102 % of control
CC(=O)CC(C)=Nc1ccc(Cl)cc1,T/C,[7],97 % of control
same,T/C,[8],96 % of control
same,T/C,[9],105 % of control
same,T/C,[10],110 % of control
same,T/C,[11],108 % of control
same,T/C,[12],104 % of control
CN1CC(C(=O)NO)C=C2c3cccc4[nH]cc(c34)CC21 (stereo not drawn),T/C,"dose: 50.0 mg/kg/injection, schedule: Q04DX003 (ip), vehicle: alcohol",104 % of control
same,T/C,"dose: 100.0 mg/kg/injection, schedule: Q04DX003 (ip), vehicle: alcohol",101 % of control
same,T/C,"dose: 200.0 mg/kg/injection, schedule: Q04DX003 (ip), vehicle: alcohol",103 % of control

# Source: PubChem BioAssay AID248 (DTP/NCI, 2004)
